For data set [1], the system named is MDA-MB-231 (subclone 2LMP) breast cancer cell line. The data set can be described thus: Cell growth inhibition, MDA-MB-231 (subclone 2LMP). The format is cell-based, human. The method, then:
(§1) A direct comparison of (−)-gossypol, apogossypol and apogossypolone for their activity in inhibition of cell growth in PC-3 and LnCap prostate cancer cell lines was carried out.
(§2) Additional cell growth inhibition studies were performed using the MDA-MB-231 (subclone 2LMP), T47D, and MDA-MB-435 breast cancer cell lines. Racemic gossypol, apogossypol, apogossypolone, (+)-apogossypol, (−)-apogossypol, and tetra-acetyl apogossypolone (Formula VIII) were tested as described above.

Data set [2] has as its system MDA-MB-435 breast cancer cell line. Put plainly: Cell growth inhibition, MDA-MB-435. The data set is classed as cell-based, human. How it is done: as §1, §2
For data set [3], the system named is T47D breast cancer cell line. The data set can be described thus: Cell growth inhibition, T47D. The format is cell-based, human. The method, then: as §1, §2
In data set [4] the test system is PC-3 prostate cancer cell line. The data set can be described thus: Inhibition of cell growth, MTT assay, PC-3. The data set is classed as cell-based, human. Conditions: for IC50: PC-3 cells, 4-6 day MTT assay, read-out: IC50, inhibition of cell growth. The method, then: as §1
For orientation: Formazan colour is commonly taken as a measure of viable cells.

Data set [5] has as its system LnCap prostate cancer cell line. Put plainly: Inhibition of cell growth, MTT assay, LnCap. The format is cell-based. The following applies: LnCap cell line; read-out: IC50, inhibition of cell growth. How it is done: as §1
The nature of data set [6]: Maximal tolerated dose (MTD) in mice. The data set is classed as in vivo. The method, then: To confirm this prediction, the maximal tolerated dose (MTD) of apogossypolone and (−)-gossypol was evaluated in mice using two different routes of administrations (oral and intravenous). For oral administration (oral gavage 5 days/week), the MTD of apogossypolone was above 240 mg/kg while the MTD for (−)-gossypol was about 50 mg/kg. For intravenous administration (every other day and 3 days/week), the MTD of apogossypolone was about 80 mg/kg while the MTD for (−)-gossypol was about 10 mg/kg. In both routes of administration, the MTD of apogossypolone was 8-times better than (−)-gossypol.

Data set [7] has as its target T1, human Mcl-1 protein (amino acids 171-327) (Homo sapiens, UniProt Q07820).
T1 construct: The fragment encoding amino acids 171-327 was cloned into the pHis-TEV vector; 8xHis (N); made in house; host or cells: E. coli BL21(DE3)
Put plainly: Fluorescence polarization binding assay for the Mcl-1 protein (Flu-Bid-21 probe).

In the next data set the target is recombinant human Bcl-2 (Homo sapiens, UniProt P10415). Put plainly: Fluorescence polarization binding assay for Bcl-2 (Bid-FAM peptide displacement). (In general: Fluorescence polarisation rises when a labelled molecule tumbles more slowly, as on binding a larger partner.)
Chain of recombinant human Bcl-2 (P10415 92-205 limits assumed): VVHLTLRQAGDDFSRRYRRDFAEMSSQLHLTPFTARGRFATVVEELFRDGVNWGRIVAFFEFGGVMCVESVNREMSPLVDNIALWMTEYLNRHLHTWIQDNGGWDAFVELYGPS
A short description of data set [8]: Storage stability of the sample. The format is physicochemical. The following applies: stored at −20° C. and under nitrogen.
[9] abbreviates: Homo sapiens, MDA-MB-231, read-out: IC50 (μM) MDA-MB-231.
The mark [10] stands for this setting: Homo sapiens, MDA-MB-435, read-out: IC50 (μM) MDA-MB-435.
[11] abbreviates: Homo sapiens, T47D, read-out: IC50 (μM) T47D.
Setting [12] is: MDA-MB-231 (subclone 2LMP), read-out: IC50 (μM) MDA-MB-231.
Setting [13] is: MDA-MB-435; read-out: IC50 (μM) MDA-MB-435.
[14] abbreviates: FP-based binding assay, Ki calculated from IC50 with modified Cheng-Prusoff equation, read-out: Ki.

Structures are written as SMILES. Like-named read-outs stand apart in the source and are kept apart here. Bounds are passed on as bounds.

T1 sequence (Q07820 171-327): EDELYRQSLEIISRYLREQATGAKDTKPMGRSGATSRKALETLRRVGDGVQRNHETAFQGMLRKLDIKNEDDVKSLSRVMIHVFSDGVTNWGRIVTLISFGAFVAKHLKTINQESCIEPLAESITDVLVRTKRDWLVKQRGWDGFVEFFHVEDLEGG

`Cc1cc2c(C(C)C)c(O)c(O)c(C=O)c2c(O)c1-c1c(C)cc2c(C(C)C)c(O)c(O)c(C=O)c2c1O` (racemic) [(±)-Gossypol, gossypol]: the IC50 (usually the concentration at which inhibition is half-maximal) in data set [1] (setting [9]) was 11.1 µM; in [2] (setting [10]), 11.4 µM; in data set [3] (setting [11]), 16.3 µM.
On to `Cc1cc2c(C(C)C)c(O)c(O)cc2c(O)c1-c1c(C)cc2c(C(C)C)c(O)c(O)cc2c1O` [(+)-Apogossypol, (+)-apogossypol], for which the 50% inhibitory concentration (IC50) turned out to be 8.81 µM in [1] (setting [12]), 7.28 µM in data set [2] (setting [13]) and 14 µM in data set [3] (T47D; read-out: IC50 (μM) T47D).
Taken in the same sequence, the figures for `Cc1cc2c(C(C)C)c(O)c(O)cc2c(O)c1-c1c(C)cc2c(C(C)C)c(O)c(O)cc2c1O` [(−)-Apogossypol, (−)-apogossypol] were 2.31 µM, 3.13 µM and 4.26 µM.
Take `Cc1cc2c(C(C)C)c(O)c(O)c(C=O)c2c(O)c1-c1c(C)cc2c(C(C)C)c(O)c(O)c(C=O)c2c1O` [(−)-gossypol, reference compound]: the half-inhibitory concentration (IC50) in data set [4] is 6.5 µM; in data set [5] it was 4.7 µM. Also, the “maximal tolerated dose (MTD)” value in [6] (intravenous, every other day and 3 days/week) is reported as “about 10 mg/kg”; in data set [6] (oral gavage 5 days/week), “about 50 mg/kg”. Also, the inhibition constant (Ki) (commonly the equilibrium dissociation constant of an inhibitor or competing ligand from its target) in data set [7] (FP competitive binding, unit inferred, read-out: Ki to Mcl-1) was determined as 0.18 ± 0.01 µM.
Regarding `CC[C@H](C)[C@H](NC(=O)[C@H](CC(N)=O)NC(=O)[C@H](CCCNC(=N)N)NC(=O)[C@@H](NC(=O)[C@@H](NC(=O)[C@H](CC(=O)O)NC(=O)[C@H](CCC(=O)O)NC(=O)[C@H](CCC(N)=O)NC(=O)c1ccc2c(c1)C1(OC2=O)c2ccc(O)cc2Oc2cc(O)ccc21)[C@@H](C)CC)[C@@H](C)CC)C(=O)N[C@@H](C)C(=O)N[C@@H](CCCNC(=N)N)C(=O)N[C@@H](Cc1c[nH]cn1)C(=O)N[C@@H](CC(C)C)C(=O)N[C@@H](C)C(=O)N[C@@H](CCC(N)=O)C(=O)N[C@H](C(=O)NCC(=O)N[C@@H](CC(=O)O)C(=O)N[C@@H](CO)C(=O)N[C@@H](CCSC)C(=O)N[C@@H](CC(=O)O)C(=O)N[C@@H](CCCNC(=N)N)C(=O)O)C(C)C` [Flu-Bid-21], the Kd in data set [7] (probe concentration 0.5 nM, read-out: apparent Kd for Mcl-1) was found to be 0.0007 µM; in data set [7] (probe concentration 1 nM, saturation experiment, read-out: Kd for Mcl-1), 0.00083 µM; in data set [7] (probe concentration 2.5 nM, read-out: apparent Kd for Mcl-1), 0.00105 µM; in data set [7] (probe concentration 5 nM, read-out: apparent Kd for Mcl-1), 0.00132 µM.
As for `CC(=O)Oc1cc2c(c(C(C)C)c1OC(C)=O)C(=O)C(C)=C(C1=C(C)C(=O)c3c(cc(OC(C)=O)c(OC(C)=O)c3C(C)C)C1=O)C2=O` [Tetra acetyl apogossypolone, tetra-acetyl apogossypolone], the IC50 worked out at 1.32 µM in data set [1] (Homo sapiens, MDA-MB-231 (subclone 2LMP), read-out: IC50 (μM) MDA-MB-231); 6.29 µM in data set [2] (Homo sapiens, MDA-MB-435; read-out: IC50 (μM) MDA-MB-435); 6.33 µM in data set [3] (Homo sapiens, T47D; read-out: IC50 (μM) T47D).
As to `Cc1cc2c(C(C)C)c(O)c(O)cc2c(O)c1-c1c(C)cc2c(C(C)C)c(O)c(O)cc2c1O` [apogossypol], the Ki on recombinant human Bcl-2 came to 0.2 µM. Further, the “potency relative to (−)-gossypol in inhibition of cell growth” value in data set [4] (PC-3 cell line, 3-5 independent experiments) was “as potent as (−)-gossypol”. Besides, the results for the IC50 in data set [1] (setting [9]), in [2] (setting [10]) and in data set [3] (setting [11]) were 2.37 µM, 3.39 µM and 6.51 µM, respectively. Besides, the “fold more potent than gossypol” value in [1] (MDA-MB-231 cell line) is on record as “about 5 fold”; in data set [2] (MDA-MB-435 cell line), “about 3 fold”; in data set [3] (T47D cell line) it was “about 2.5 fold”. In addition, the “time in which the sample decomposed” value in [8] is ≤ 1 week.
With `Cc1cc2c(C(C)C)c(O)c(O)c(C(=O)O)c2c(O)c1-c1c(C)cc2c(C(C)C)c(O)c(O)c(C(=O)O)c2c1O` [gossypolic acid], the Ki at recombinant human Bcl-2 (setting [14]) was 0.12 µM. Further, the IC50 in data set [4] (Homo sapiens) was > 10 µM.
Taken in the same sequence, the figures for `CC1=C(C2=C(C)C(=O)c3c(c(C(=O)O)c(O)c(O)c3C(C)C)C2=O)C(=O)c2c(C(=O)O)c(O)c(O)c(C(C)C)c2C1=O` [gossypolonic acid] were 0.28 µM and > 10 µM.
As to `CC[C@H](C)[C@H](NC(=O)[C@H](CC(N)=O)NC(=O)[C@H](CCCN=C(N)N)NC(=O)[C@@H](NC(=O)[C@@H](NC(=O)[C@H](CC(=O)O)NC(=O)[C@H](CCC(=O)O)NC(=O)[C@@H](N)CCC(N)=O)[C@@H](C)CC)[C@@H](C)CC)C(=O)N[C@@H](C)C(=O)N[C@@H](CCCN=C(N)N)C(=O)N[C@@H](Cc1c[nH]cn1)C(=O)N[C@@H](CC(C)C)C(=O)N[C@@H](C)C(=O)N[C@@H](CCC(N)=O)C(=O)N[C@H](C(=O)NCC(=O)N[C@@H](CC(=O)O)C(=O)N[C@@H](CO)C(=O)N[C@@H](CCSC)C(=O)N[C@@H](CC(=O)O)C(=O)N[C@@H](CCCN=C(N)N)C(=O)O)C(C)C` [unlabeled Bid 21mer peptide], the affinity in data set [7] corresponds to a Ki of 0.0057 ± 0.0011 µM.

Source of the values: US20060178435A1, “Apogossypolone and the uses thereof” (The Regents of the University of Michigan, priority 2004, published 2006).
